{"source": "patent US10568866B1", "about": "“Composition and its use for increasing innate immune health” (priority 2018, dated 2020)", "type_in_all_cases": "cell-based", "key": {"IL-6": {"tested_on": "IL-6", "assay": "Pro-inflammatory IL-6 release by LPS stimulated RAW264.7 macrophages (ELISA)", "conditions": "for comparative effectiveness in decreasing IL-6 secretion (in words): 5-20 μg/ml individually, 75 μg/ml mixture, LPS stimulated, FIG. 3", "procedure": "The pro-inflammatory IL-6 release by RAW264.7 macrophages was assessed using the IL-6 Quantikine ELISA assay kit (R&D, Minneapolis, Minn.) according to the manufacturer's protocol. Briefly, 2×10^6 of cells were plated in 6-well plates and allowed to settle for 2-4 h, followed by incubation with different micronutrients and plant extracts (5-20 μg/ml) 24 h at 37° C. in 5% CO2 atmosphere. After the incubation period, cells were stimulated with LPS (10 ng/ml) for additional 24 h and all supernatants were collected and subjected to ELISA assay according to manufacturer's protocol. As a positive control, LPS-stimulated cells without treatment were used. All experiments were done in triplicate.\nThe effect of naturally-derived agents and their mixture on release of pro-inflammatory IL-6 by RAW264.7 macrophage cell line. Macrophages were pre-incubated with different micronutrients and plant extracts (5-20 μg/ml) individually and in a mixture followed by their stimulation with Lipopolysaccharide (LPS). Each column represents the mean±standard deviation (n=4)."}, "RAW264.7 macrophages": {"tested_on": "RAW264.7 macrophages", "assay": "In vitro phagocytic assay (nitroblue tetrazolium (NBT) reduction test), RAW264.7 macrophages", "conditions": "5-20 μg/ml individually, 75 μg/ml mixture, 24 h, FIG. 1A", "quoted_text": "RAW264.7 macrophages (5×10^6 cells/well of a 96-well plate) were cultured with different micronutrients and plant extracts (5-20 μg/ml) for 24 h at 37° C. Thereafter, 20 μl C. albicans or S. mutans (5×10^7 cells/ml in PBS) suspension, and 20 μl nitroblue tetrazolium (1.5 mg/ml of NBT in PBS) were added to each well. Wells that received PBS+DMSO were used as control. Next, cells were incubated for 3 h at 37° C., the supernatant was removed, and the adherent macrophages were rinsed with RPMI 1640. The cells were air dried before 80 μl of 2M KOH and 100 μl DMSO were added to each well. The absorbance was measured at 570 nm using the microplate reader. Percentage of NBT reduction (reflecting phagocytic activity) was calculated as following equation: Phagocytic Index=(ODsample−ODcontrol)/ODcontrol.\nThe assay used nitroblue tetrazolium (NBT) reduction test after treatment with different individual micronutrients and plant extracts (5-20 μg/ml) and their combination for 24 h at 37° C. PI and phagocytosis was tested using C. albicans and S. mutants. Values shown are mean±standard deviation (n=4)."}, "YAC-1 cells": {"tested_on": "YAC-1 cells", "assay": "Cytotoxicity assay of natural killer (NK) cells toward target YAC-1 cells (MTT)", "conditions": "individual compounds 5-20 μg/ml, 24 h, FIG. 2", "procedure": "Cytotoxicity Assay of Natural Killer (NK) Cells were performed using splenic natural killer (as the effector cells) activity assay was carried out according as described by Yi et al. Carbohydr. Polym. 2012, 87:636-643. The splenocytes/splenic NK cells were plated into 96-well plates at a density of 1×10^7 cells/ml per well in a 50 μl volume, and stimulated with different micronutrients and plant extracts (5-20 μg/ml) for 24 h at 37° C. Then, YAC-1 cells (1×10^6 cells/ml) were added into all experimental wells (group) and complete medium only was placed in the other wells as the effector control. At the same time, complete medium (100 μl), containing only YAC-1 cells (1×10^6 cells/ml), was added into empty wells as the target control. […] The absorbance was measured at 570 nm using a microplate reader. Cytotoxicity of NK cell was expressed as Cytotoxic Index (percent lysis of target cells): CI=[ODT−(ODexp.−ODE)]/ODT×100], where ODT represents OD value of the target control, whereas ODexp. and ODE represent OD value of the experimental group and effector control, respectively.\nCytotoxicity of NK cells toward target YAC-1 cells in the presence of different micronutrients and plant extracts (5-20 μg/ml) used individually and in a combination for 24 h at 37° C. Cytotoxicity of NK cells was assessed by the MTT assay and expressed as the mean±standard deviation (n=4)."}}, "data": [{"compound": "O=C(O)CCCCC1CCSS1", "note": "(stereo not drawn) [Alpha lipoic acid]", "values": [{"measurement": "comparative effectiveness in decreasing IL-6 secretion (in words)", "setting": "IL-6", "result": "best natural compounds"}]}, {"compound": "O=C1O[C@H]([C@@H](O)CO)C(O)=C1O", "note": "[Vitamin C]", "values": [{"measurement": "comparative effectiveness in stimulating phagocytic activity of RAW264.7 macrophages (in words)", "setting": "RAW264.7 macrophages", "result": "most effective individual agents"}, {"measurement": "comparative effectiveness in decreasing IL-6 secretion (in words)", "setting": "IL-6", "result": "best natural compounds"}]}, {"compound": "Fucoidan", "values": [{"measurement": "comparative effectiveness on NK cell cytotoxicity (in words)", "setting": "YAC-1 cells", "result": "two most effective individual compounds"}]}, {"compound": "Lipopolysaccharide [LPS]", "values": [{"measurement": "stimulation of IL-6 secretion by exposure of RAW264.7 macrophages to LPS", "setting": "IL-6; LPS 10 ng/ml, 24 h, no treatment (positive control)", "result": "over 300%"}]}]}
